Experimental data: patent publication US20160038485A1, “PHASE 2 INDUCERS AND RELATED SIGNALING PATHWAYS PROTECT CARTILAGE AGAINST INFLAMMATION, APOPTOSIS AND STRESS” (THE JOHNS HOPKINS UNIVERSITY, priority 2006, published 2016)

What was measured:
[1] = system: phase 2 genes; details: cited from earlier work
[2] = system: T/C28a2 cells; experiment: Total glutathione (GSH) levels in shear-activated chondrocytes; type: cell-based, human; details: T/C28a2, high shear (20 dyn/cm^2); SFN 1.25 μM, CAY10404 6.75 μM, NS398 30 μM
Method: (§1) Cell Culture and Shear Stress Exposure: Human T/C28a2 chondrocytic cells were grown (37° C., 5% CO2) in 1:1 Ham's F-12/DMEM (Biowhittaker) supplemented with 10% FBS. Prior to shear exposure, T/C28a2 cells were incubated for 24 hours in serum-free medium containing 1% Nutridoma-SP (Roche), a low-protein serum replacement that maintains chondrocyte phenotype. Primary HUVECs were cultured as described (Goldring, M. B., 2004). T/C28a2 cells were exposed to shear stress in media containing 1% Nutridoma by use of a parallel-plate flow chamber with a recirculating flow loop (37° C., 5% CO2) (10). HUVECs were treated similarly by circulating media supplemented with 10% FBS.
(§2) Cell Viability, NQO1 activity, Glutathione levels, and Prostaglandin (PG)E2 production: Cell viability was monitored with the MTT assay (Gao, X. et al. 2001). NQO1 activity and total GSH (oxidized and reduced) levels of cell lysates were determined in 96-well microtiter plates. PGE2 levels were determined in media by the Prostaglandin E2 monoclonal EIA kit (Cayman Chemical).

[3] = system: T/C28a2 cells; experiment: Shear-induced apoptosis: DNA fragmentation (TUNEL) and mitochondrial membrane depolarization; type: cell-based, human; details: 20 dyn/cm^2, 48 h; D3T 5 μM, CAY10404 6.75 μM, NS398 30 μM
Method: as §1
DNA Fragmentation and Mitochondrial Depolarization: For DNA fragmentation, cells were fixed in 4% paraformaldehyde for 1 hour at 25° C., washed 2× in PBS, and permeabilized briefly in 0.1% Triton-X100/0.1% sodium citrate on ice. Subsequently, cells were washed 2× in PBS, labeled using the In Situ Cell Death Kit (Roche), and analyzed by flow cytometry. To quantify Mitochondrial Membrane Potential (MMP), cells were labeled using the MitoProbe JC-I Kit (Molecular Probes).

[4] = system: NQO1; experiment: NQO1 enzyme activity in shear-activated chondrocytes; type: cell-based, human; details: T/C28a2, high shear (20 dyn/cm^2); SFN 1.25 μM, D3T 5 μM, CAY10404 6.75 μM, NS398 30 μM
Method: as §1, §2

[5] = system: T/C28a2 chondrocytic cells; experiment: DNA microarray analysis of shear-induced mRNA response of chondrocytes; type: cell-based, human; details: Wy14643 10 μM; 20 dyn/cm^2, 48 hours; cDNA microarray
Method: as §1
Microarray Hybridization and Analysis: Cy-3- and Cy-5-labeled probes were mixed, dried, resuspended in hybridization buffer (50% formamide, 10×SSC, 0.2% SDS, COT-I DNA, Poly(A)-DNA), and denatured. The probes were added to microarray slides printed with a set of 32,448 or 39,936 expressed sequence tags (ESTs), allowed to hybridize at 42° C. overnight, and processed as described (Abulencia, J. P., et al. 2003. Hegde, P. et al. 2000). Expression ratios were derived using TIGR Spotfinder (Abulencia, J. P. et al. 2003, Hegde, P. et al. 2000). Differentially expressed genes were identified by Significance Analysis of Microarrays, and analyzed with the software TMEV (Abulencia, J. P. et al. 2003).
(§3) Quantitative Real-Time PCR (qRT-PCR) was used to verify DNA microarray data. Incorporation of SYBR Green into PCR products was monitored with the 7900HT detection system.

[6] = system: T/C-28a2 cells; experiment: qRT-PCR transcript ratios (shear/static) in chondrocytes; type: cell-based, human
Method: as §1, §3
Cell Culture and shear stress exposure, microarray hybridization and analysis and quantitative real-time PCR (qRT-PCR) were carried out as in example 1. T/C-28a2 chondrocytes were pre-treated with a specific PPARα ligand, Wy14643 (10 μM) for 2 hours before being subjected to a shear stress level of 20 dyn/cm^2 for 48 hours in the presence of Wy14643. This pharmacological intervention abolished the shear-induced down regulation of the mRNA levels of Nrf2 and phase 2 genes and apoptosis as evidenced by the abrogation of shear-mediated changes of Bcl-w and pro-caspase-9 mRNA expression.

[7] = system: ARE-driven NQO1 promoter; experiment: Promoter activity assay (pNQO1/ARE-luc); type: cell-based, human; details: transfected T/C28a2 cells; SFN 1.25 μM or D3T 5 μM, 24 h, static conditions
Method: Transient Transfection and Plasmid Constructs: T/C28a2 cells were transfected with 10 μg of plasmid and 2 μg of control with Lipofectamine and Plus Reagent (Invitrogen). Cells were allowed to recover for 3 hours, incubated overnight in medium containing 1% Nutridoma, and exposed to the indicated treatments. Efficiency was assessed by flow cytometry with pEGFP-N2 (BD Biosciences). pCMV-mNrf2 and pNQO1/ARE-luc constructs were provided by N. Wakabayashi (Wakabayashi, N. et al. 2004). Igarashi, K., et al. 1994), and pBJ M-pl 10*-myc, pBJ M<<pl 10-UR, and pCG pi 10 wt constructs were provided by A. Kippel (Hu, Q., et al. 1995).
Promoter Activity Assay: T/C28a2 cells were transfected with 10 μg of pNQO1/ARE-luc and 1 μg each of pEGFP-N2 and pSV40-hRL2 (Promega) to normalize transfection efficiency. Firefly and Renilla luciferase activities were measured using the Dual-Luciferase Report Assay kit (Promega).

[8] = Wy14643 10 μM pre-treatment, 20 dyn/cm^2, 48 h, mean + range (n = 2)

SMILES	CD [1] [µM]	other results
CCc1ccccc1CN=C=S [GHP 1053]	12.5	
O=C(O)CCCCN=C=S [GHP 1103]	2.19	
CSCCCCCN=C=S [GHP 1001]	1.71	
COc1cccc(OC)c1CN=C=S [GHP 1044]	5.8	
CCOC(=O)C(CCSC)N=C=S (stereo not drawn) [GHP 1074]	2.64	
CCOC(=O)CN=C=S [GHP 1061]	8.2	
COC(=O)C1CC2CC(N=C=S)C1C2 (stereo not drawn) [GHP 1069]	0.68	
CCOc1ccccc1CN=C=S [GHP 1051]	2.5	
S=C=Nc1ccccc1Cl [GHP 1032]	100	
CS(=O)(=O)c1ccc(-c2noc(C(F)(F)F)c2-c2ccccc2)cc1 [CAY10404]		shear-induced suppression of intracellular GSH levels [2]: reduced the shear-induced down-regulation; shear-induced apoptosis (DNA fragmentation TUNEL, mitochondrial membrane depolarization MMP) [3]: marked reduction; shear-induced suppression of NQO1 activity [4]: reduced the shear-induced down-regulation
CS(=O)(=O)[C@H]1CCC[C@H](CN=C=S)C1 [GHP 1079]	0.48	
CC(=O)C1CC2CC(N=C=S)C1C2 (stereo not drawn) [GHP 1066]	0.26	
CCCCC(=O)CCCCN=C=S [GHP 1081]	2.0	
CS(=O)(=O)[C@H]1CCC[C@@H](CN=C=S)C1 [GHP 1080]	0.41	
N#CC1CC2CC1CC2N=C=S (stereo not drawn) [GHP 1071]	0.59	
COc1cccc(CN=C=S)c1 [GHP 1042]	8.65	
CS(=O)(=O)CCCCN=C=S [GHP 1007]	0.82	
CSc1ccccc1CN=C=S [GHP 1046]	6.8	
COc1ccc(CN=C=S)cc1 [GHP 1043]	25	
S=C=NC1CCc2ccccc21 (stereo not drawn) [GHP 1052]	38.9	
O=[N+]([O-])C1CC2CC1CC2N=C=S (stereo not drawn) [GHP 1072]	1.05	
Fc1ccccc1CN=C=S [GHP 1047]	13.1	
N#CCCCCN=C=S [GHP 1101]	1.97	
COC(=O)CCCCN=C=S [GHP 1102]	2.81	
CP(C)(=O)CCCCN=C=S [GHP 1078]	0.43	
OC1CC2CC1CC2N=C=S (stereo not drawn) [GHP 1077]	1.85	
C[S+]([O-])CCCCN=C=S (stereo not drawn) [GHP 1005]	0.20	
CSc1ccccc1CCN=C=S [GHP 1022]	7.4	

SMILES	CD [1] [µM]	other results
CSC(=O)CCCCN=C=S [GHP 1104]	2.8	
CS(=O)(=O)C1CC2CC1CC2N=C=S (stereo not drawn) [GHP 1064]	0.66	
CS(=O)(=O)C1CC2CC(N=C=S)C1C2 (stereo not drawn) [GHP 1068]	0.15	
C[S+]([O-])CCCN=C=S (stereo not drawn) [GHP 1009]	2.36	
S=C=NCc1ccccc1Br [GHP 1049]	12.5	
CS(=O)(=O)[C@H]1CC[C@@H](N=C=S)CC1 [GHF 1073]	0.44	
CC(=O)CCCCN=C=S [GHP 1105]	0.23	
CN(C)c1ccccc1CN=C=S [GHP 1045]	12.5	
COc1ccccc1CN=C=S [GHP 1041]	2.41	
CS(=O)(=O)CCCCCN=C=S [GHP 1003]	0.98	
COc1ccccc1N=C=S [GHP 1031]	100	
CS(=O)(=O)Nc1ccc([N+](=O)[O-])cc1OC1CCCCC1 [NS398]		shear-induced suppression of intracellular GSH levels [2]: indistinguishable from those with CAY10404; shear-induced apoptosis (DNA fragmentation TUNEL, mitochondrial membrane depolarization MMP) [3]: marked reduction; shear-induced suppression of NQO1 activity [4]: indistinguishable from those with CAY10404
Cc1cccc(Nc2cc(Cl)nc(SCC(=O)O)n2)c1C [Wy14643]		shear-mediated up-regulation of JNK2 mRNA levels [5]: nearly abrogates; shear-mediated up-regulation of c-Jun mRNA levels [5]: nearly abrogates; Bcl-w (Bcl-2-like protein 2) qRT-PCR Transcript Ratio (Shear/Static) [6, 8]: 1.0 ± 0.1; COX-2 (cyclooxygenase-2) qRT-PCR Transcript Ratio (Shear/Static) [6, 8]: 1.3 ± 0.2; Caspase-9 precursor qRT-PCR Transcript Ratio (Shear/Static) [6, 8]: 1.0 ± 0.1; GCLR (glutamate-cysteine ligase) qRT-PCR Transcript Ratio (Shear/Static) [6, 8]: 1.2 ± 0.2; GST μ1 (glutathione-S-transferase class μ1) qRT-PCR Transcript Ratio (Shear/Static) [6, 8]: 1.3 ± 0.2; MMP-9 (matrix metalloproteinase-9) qRT-PCR Transcript Ratio (Shear/Static) [6, 8]: 1.3 ± 0.1; NQO1 (NAD(P)H:quinone oxidoreductase-1) qRT-PCR Transcript Ratio (Shear/Static) [6, 8]: 1.0 ± 0.1; Nrf2 (NF-E2 related factor 2) qRT-PCR Transcript Ratio (Shear/Static) [6, 8]: 1.6 ± 0.1; PGE2 Receptor Subtype EP4 qRT-PCR Transcript Ratio (Shear/Static) [6, 8]: 0.6 ± 0.1; PPARα qRT-PCR Transcript Ratio (Shear/Static) [6, 8]: 1.1 ± 0.2; iNOS (inducible Nitric Oxide Synthase II) qRT-PCR Transcript Ratio (Shear/Static) [6, 8]: 1.0 ± 0.2; shear-induced down regulation of the mRNA levels of Nrf2 and phase 2 genes ([6]; Wy14643 10 μM, 2 hours before and during 20 dyn/cm^2, 48 hours): abolished; shear-mediated changes of Bcl-w and pro-caspase-9 mRNA expression (apoptosis) ([6]; Wy14643 10 μM, 20 dyn/cm^2, 48 hours): abrogation
CSCCc1ccccc1N=C=S [GHP 1023]	100	
S=C=NCc1ccccc1Cl [GHP 1048]	14.1	
CSCc1ccccc1CN=C=S [GHP 1021]	4.3	
CC(O)CCCCN=C=S (stereo not drawn) [GHP 1106]	0.35	
CS(=O)(=O)CCCN=C=S [GHP 1010]	1.32	
CSCCCN=C=S [GHP 1008]	3.52	
COC(=O)C1CC2CC(N=C=S)C1C2 (stereo not drawn) [GHP 1070]	1.6	
O=CNc1ccc(N=C=S)cc1 [GHP 1033]	100	
C[S+]([O-])CCCCCN=C=S (stereo not drawn) [GHP 1002]	0.94	
CC(=O)C1CC2CC1CC2N=C=S (stereo not drawn) [GHP 1067]	0.43	
OC1CC2CC(N=C=S)C1C2 (stereo not drawn) [GHP 1076]	1.10	
Cc1ccccc1CN=C=S [GHP 1050]	3.7	
CC(O)C1CC2CC1CC2N=C=S (stereo not drawn) [GHP 1075]	0.45	
C[S@@+]([O-])CCCCN=C=S [SFN, (−)-1-isothiocyanato-4(R)-(methylsulfinyl)-butane]		shear-induced suppression of intracellular GSH levels [2]: abolished; ARE-driven NQO1 promoter luciferase activity [7]: increases the luciferase activity; shear-induced suppression of NQO1 activity [4]: abolished
